Measurements taken from a melting point compilation (Tetko et al.; mined from patent text by program, amines drawn as free bases though some values may be those of a salt).

| SMILES | melting point |
| --- | --- |
| Cc1ccccc1SN(C)C(=O)Oc1cccc2c1OC(C)(C)C2 | 78 °C |
| CNC(=O)N1C2c3ccccc3OCC2(C(=O)OC)CN1C(=O)Nc1ccc(C(F)(F)F)cc1 (stereo unspecified) | 208 to 209 °C |
| CC(=O)C12OC1CC1C3CC=C4CC(O)CCC4(C)C3CCC12C (stereo unspecified) | 194 to 196 °C |
| COc1ccc(CNC(=O)c2ccc([N+](=O)[O-])cc2N)cc1 | 129 to 131 °C |
| Cc1ccc(NC(=N)c2ccccn2)cc1C | 105 to 107 °C |
| Cc1[nH]c(=S)n(Nc2cccc(Cl)c2)c1C | 234 °C |
| NC(=O)C1CCc2ccc(C(=O)c3ccccc3)cc21 (stereo unspecified) | 195 to 197 °C |
| COc1ccc(N(N)c2ncnc3cc(Cl)ccc23)cc1 | 124 to 127 °C |
| CCOC(=O)c1cc(-n2c(OCC)nc(C(F)(F)F)cc2=O)c(F)cc1Cl | 94 to 96 °C |
| O=C(c1nc(-c2ccccc2)nc2ccccc12)N1CCC(O)CC1 | 209 °C |
| CCCS(=O)c1sc(C(N)=O)c2c1-c1c(cnn1CC)CC2 (stereo unspecified) | 151 to 152 °C |
| CC(C)c1ccc(N(Cc2ccc(O)cc2)C(=O)C2CCCc3c(O)cccc32)cc1 (stereo unspecified) | 241 to 243 °C |
| Nc1c(CCO)cccc1C(O)c1ccc(Br)cc1 (stereo unspecified) | 128 to 129 °C |
| COC1=C(C)C(=O)C2=C(C1=O)C(COC(N)=O)C1(OC)C3NC3CN21 (stereo unspecified) | 161 °C |
| C#CCOCc1c(C)nc2c(OCc3ccccc3Cl)cccn12 | 95 to 95.5 °C |
| FC(F)(F)c1cc2cc3cc4cc(Sc5ccccc5)c(Sc5ccccc5)cc4cc3cc2cc1C(F)(F)F | > 260 °C |
| COC(=O)NC(C#N)Cc1ccc(OC)c(OC2CCCC2)c1 (stereo unspecified) | 121 to 122 °C |
| Cc1nn(C)c(-n2ccc3cc(Cl)cnc32)c1/C=C/C(=O)NS(=O)(=O)NCC1CC1 | 209 to 210 °C |
| O=C(NC[C@H]1CN(c2ccc3c(c2)CCCc2cn[nH]c2-3)C(=O)O1)c1ccccc1 | 105 to 125 °C |
| COc1ccnc(CCc2nc3ccc(OC)nc3[nH]2)c1 | 93 to 95 °C |
| CC(=O)c1c(C)[nH]c(C(C)CC(C)C)c1C (stereo unspecified) | 140 to 142 °C |
| NCCc1cc2c(-c3ccccc3)c(CC(=O)Nc3ccc(Cl)cc3C(F)(F)F)c(=O)oc2cc1Cl | 165 to 167 °C |
| CCCC(=O)Nc1c(C)c2c(c(C(C)c3ccc(C(C)C)cc3)c1C)OCC2 (stereo unspecified) | 152 to 153 °C |

| SMILES | melting point |
| --- | --- |
| Cc1c(-c2ccccc2)oc2c(OCCCCBr)cccc2c1=O | 91 to 92 °C |
| Cn1ccc2c1Cc1nncn1C=C2 | 178 °C |
| CNS(=O)(=O)N1CCNC1=O | 184 °C |
| Cc1ccc(N(c2ccc(C)c(C)c2)c2cccc3ccccc23)cc1C | 125 to 127 °C |
| CCn1cc(OC(=O)c2ccccc2)c(=O)c2ccccc21 | 190 to 192 °C |
| Cc1cc2cc(CN3CCCC3)cnc2cc1NC(=O)c1ccc(-c2ccc(Cl)cc2)c(F)c1 | 181 to 185 °C |
| COc1ccc(S(=O)(=O)n2ccc3ccnc(-c4ccncc4)c32)cc1 | 193 to 194 °C |
| Nc1nc(OCC2CC2)c2ncn(C3CC(F)C(CO)O3)c2n1 (stereo unspecified) | 80 to 81 °C |
| O=C(Nc1ccc2c(c1)CCC2)c1ccccc1Cl | 144 to 145 °C |
| COc1cc(-c2cc(-c3ccccn3)no2)cc2oc(=O)c(C)c(C)c12 | 193 °C |
| Cc1c(F)c(N2CCC(N)C2)cc2c1c(=O)c(C(=O)O)cn2C1CC1 (stereo unspecified) | > 300 °C |
| CC(=O)N(C)Cc1cc2c(-c3ccccc3)c(CC(=O)Nc3ccc(Cl)cc3C(F)(F)F)c(=O)oc2cc1Cl | 199 to 201 °C |
| CCCCNC(=O)Cc1ccccc1 | 56 to 57 °C |
| CCCCCCCCCCCCCCCCCCCc1cc(N)cc(CCCCCCCCCCCCCCCCCCC)c1 | 51 to 53 °C |
| COc1cc(OC)cc(-c2cc(NC(=O)CC(=O)C(F)(F)F)[nH]n2)c1 | 119 to 121 °C |
| CC(C)(C)N[C@@H]1Cc2cccc(O)c2C[C@H]1O (relative stereo) | 97 to 102 °C |
| COC(=O)C1(F)C(=O)N(C)C(=O)NC1O (stereo unspecified) | 160 to 161 °C |
| COc1ccc(/C(C)=C/C(=O)O)cc1OC | 73 to 74 °C |
| CCNC(=O)n1nc(Oc2c([N+](=O)[O-])cc([N+](=O)[O-])cc2C(F)(F)F)cc1C | 169 to 171 °C |
| CC1(C)C(=O)N(CCO)C(=O)N1CN1C(=O)N(CCO)C(=O)C1(C)C | 165 to 166 °C |
| COC(=O)NCCOC(=O)C(C)Oc1ccc(OCc2ccccc2)cc1 (stereo unspecified) | 79 to 81 °C |
| CSC(=C[N+](=O)[O-])NCCN(C)Cc1ccc(Cl)nc1 | 93 to 95 °C |

Other lines, results leading:

| melting point | SMILES |
| --- | --- |
| 83 to 84 °C | COC(=O)C(CC(=O)N1CCOCC1)Oc1ccccc1 (stereo unspecified) |
| 98 to 99 °C | CCOc1noc2c1C(=O)CCC2 |
| 160 to 162 °C | CC(=O)N1C(=O)N(N=Cc2cccnc2)Cc2cc(C(F)(C(F)(F)F)C(F)(F)F)ccc21 |
| 113 °C | CO[C@@H]1C=C(S(=O)(=O)c2ccccc2)[C@@H](C(C)C)CC1 |
| 182 to 184 °C | Cc1ccccc1C(=O)NC(NC(=O)Nc1cccnc1)C(Cl)(Cl)Cl (stereo unspecified) |
| 281 to 284 °C | COc1ccc2cc3c(c(-c4ccc(F)cc4)c2c1)C(=O)NC3=O |
| 215 °C | CC=CC=CC(=O)n1c(N)nc2ccccc21 |
| 121 to 122 °C | NS(=O)(=O)c1cccnc1OCC1CC1 |
| 140 to 144 °C | COC1(c2ccc(C(C)C)cc2OCc2ccccc2)C(=O)c2ccccc2C1=O |
| 85 to 87 °C | Clc1ccc(C2Nc3ccccc3S2)cc1 (stereo unspecified) |
| 128 to 129 °C | CCc1cc(C)cc(C)c1CC(=O)O |
| 111 to 113 °C | COc1cc(OC)cc(-c2ncn(-c3ccc(C(F)(F)F)cc3)c2-c2ccc(OC)c(O)c2)c1 |
| 258 to 260 °C | O=C(NCCc1ccncc1)c1[nH]c2ccc(Cl)cc2c1S(=O)(=O)c1ccccc1 |
| 185 to 186 °C | COC(=O)C=Cc1ccc(OCc2nc(-c3ccc4ccccc4c3)oc2C)cc1 |
| 74 to 76 °C | O=C(C=Cc1ccc(Cl)c(Cl)c1)C1CC1 |
| 279 to 282 °C | COc1ccc(-n2nc3c4c([nH]cc-3c2=O)CCCC4)cc1 |
| 227 °C | O=C(CCCCC(=O)NC1CCc2ccccc21)NC1CCc2ccccc21 (stereo unspecified) |
| 159 to 160 °C | CCSC=C1SC(=O)N(CCCCSc2cccc3nccn23)C1=O |
| 231 to 233 °C | Cc1cn([C@H]2CC[C@H](CC(=O)O)C[C@@H]2NC(=O)OC(C)(C)C)c(=O)[nH]c1=O |

| melting point | SMILES |
| --- | --- |
| 136 to 138 °C | COC(=O)c1sc(Cl)c(Cl)c1NC(C)=O |
| 131 to 134 °C | CCCCn1ccc(C=CC(=O)O)cc1=O |
| 173 to 174 °C | CC(C)Cn1c(CNC(=O)OC(C)(C)C)c(OCCCC(F)(F)F)c2cc(O)ccc2c1=O |
| 209 to 210 °C | CC(=O)N1CCN(NC(=O)c2ccc(F)cc2)CC1 |
| 185 to 192 °C | CC(CC#CC(C)(C)O)C1=CCC2C3=CC=C4CC(O)CCC4(C)C3CCC12C (stereo unspecified) |
| 95 to 96 °C | CC1=C(CC(NC(=O)c2ccc(Cl)cc2)NC(=NC#N)Nc2cccnc2)C(C)(C)CCC1 (stereo unspecified) |
| 232 to 234 °C | COc1ccc(Oc2cc(Cl)ccc2[N+](=O)[O-])c(C(=O)O)c1 |
| 253 °C | Cc1ccc(C=NNC(=O)c2ccc(O)cc2)cc1 |
| 155 to 156 °C | Oc1cccc2c1c1cccc(F)c1n2Cc1ccccc1 |
| 138 to 140 °C | COc1cc(C2CCC(c3cc(OC)c(OC)c(OC)c3)C2O)cc(OC)c1OC (stereo unspecified) |
| 244 to 246 °C | CCN(CC)Cc1ccc(CN2C(=O)COc3ccc(C=C4SC(=O)NC4=O)cc32)cc1 |
| > 290 °C | O=c1c(-c2ccccc2)coc2cc(O)c(Cl)c(Cl)c12 |
| 60 to 62 °C | CC(=O)O[C@@H](Cc1ccc(OCCN2CCC(C)(C)c3cc(C(=O)c4ccccc4)ccc32)cc1)C(=O)O |
| 189 to 190 °C | COc1cc(Nc2c(C#N)cnc3cc(-c4ccc(CN5CCN(CCO)CC5)cc4)sc23)c(Cl)cc1Cl |
| 268 to 269 °C | CN1CCN(C2=Nc3ccccc3C(O)(c3ccccc3)C2(C)C)CC1 (stereo unspecified) |
| 72 to 73 °C | CCCc1c(OCCCOc2cccc3c2CCCC3)ccc2c1OC(CCCC=O)(CCCC=O)CC2=O |
| 104 °C | Nc1ccc(S(=O)(=O)Oc2ccccc2)cc1[N+](=O)[O-] |
| 290 °C | CC(C)c1ccc2c(c1)c(S(=O)(=O)c1ccccc1)c(CC(C)(C)C(=O)O)n2Cc1ccc(N)cc1 |
| 88 to 90 °C | CCCCCCCCC(SCCCCCC)C(=O)Nc1c(OCC)ccc2ncccc12 (stereo unspecified) |

| melting point | SMILES |
| --- | --- |
| 186 to 188 °C | COc1ccc2c(c1)Sc1cc(OC)c(Cl)cc1C(=O)C2 |
| 208 to 210 °C | O=c1[nH]nc2n1C=Cc1ccccc1C2 |
| 138 °C | Nn1nc(-c2ccccc2)cc1OCCN1CCCC1 |
| 175 to 176 °C | CCCc1nc2c(N)nc3cc(OCc4cccc([N+](=O)[O-])c4)ccc3c2n1CC(C)C |
| 90 to 100 °C | CN(C)c1c(F)c(F)c(F)c(F)c1C(=O)O |
| 157 to 159 °C | CNC(=S)NCCSCc1nc2ccccc2[nH]1 |
| 122 to 124 °C | C[C@]1(COc2ccc(N3CCC(Nc4cc(Cl)cc(Cl)c4)CC3)cc2)Cn2cc([N+](=O)[O-])nc2O1 |
| 105 to 107 °C | O=C(O)CCCCc1ccc([N+](=O)[O-])cn1 |
| 69 to 70 °C | Clc1ccc(C=NOCC2CO2)cc1 (stereo unspecified) |
| 235 to 236 °C | Cc1nc(-n2cnn(CCOCc3ccc(F)cc3)c2=O)sc1C(=O)NCc1cccnc1 |
| 161 to 162 °C | COC(=O)c1ccc(C2=NC(C)(C)Cc3cc(OC)c4c(c32)CC(C)(C)O4)cc1N |
| 62 to 63.5 °C | O=C1c2ccccc2C(=O)N1c1cc(Cl)c(OC(F)(F)C(F)(F)Br)c(Cl)c1 |
| 126 to 127 °C | O=[N+]([O-])c1ccc(NS(=O)(=O)c2cccc(C(F)(F)F)c2)c(Cl)c1 |
| 122 °C | CCCN1N=C(c2ccc(F)cc2)c2cc(Cl)ccc2CS1(=O)=O |
| 151 °C | CC(C)(C)c1cc(C(=NO)c2ccccc2)cc(C(C)(C)C)c1O |
| 259 to 262 °C | COc1ccc2cc3c(c(-c4ccc5c(c4)OCO5)c2c1)CNC3=O |
| 124 to 125 °C | CC1(c2ccccc2)SCN=C1COc1ccc(C#N)cn1 (stereo unspecified) |
| 79 to 81 °C | Cc1oc(-c2ccccc2)nc1CCOc1ccc(C=O)cc1 |
